Data published in US5866597A, “Use of triazine compounds for the treatment of memory and learning disorders” (Glaxo Wellcome Inc., priority 1993, dated 1999).

Assays:
Format in all cases: in vivo, Male Wistar rats
[1] = tested on: scopolamine-induced pupillary dilatation in rats; test: Pupil diameter measurement in rats (Table 6); conditions: for Mean pupil diameter: ± SEM
Procedure: (§1) 15 minutes before observation. Under these conditions, which were identical to those used in the learning experiments described in Example 2, changes in salivation and pupil diameter were measured. Salivation was measured by placing a piece of folded filter paper in the rat's mouth and measuring the diameter of the blot in mm after 1 minute. Pupil diameter was measured using a magnifying glass and graticule under normal lighting conditions. For both measures, comparisons were made between control and drug-treated groups using a Student's T-test on independent samples.
(§2) Groups of 6 animals were used.

[2] = tested on: scopolamine-induced dry mouth in rats; test: Salivation measurement in rats (Table 6); conditions: for Mean salivation (blot diameter): ± SEM
Procedure: as §1, §2

[3] = tested on: scopolamine-induced deficit in rats; test: Light-dark box memory test in rats, scopolamine-induced deficit, single dose pre-training (Tables 3 and 4); conditions: for Mean latency Day 1 / Mean latency Day 2: ± SEM
Procedure: (§3) Male Wistar rats obtained from Charles River were used. They were housed under controlled conditions (temperature 21±2 deg. C., humidity approx. 50%, 12 hour light/dark cycle, food and water ad lib) for one week before use. On the day before test the rats were permanently housed in groups of six. Food and water were supplied ad lib. On the test day, animals were weighed and then dosed either 30 minutes before test (midazolam), one hour before test (compound A) or immediately after test.
(§4) All drugs were dissolved or suspended in 0.25% (w/v) aqueous celacol, and administered orally (by gavage), i.p. or s.c. The dose volume was 5 ml/kg for all routes.
(§5) An identical apparatus to that described in Example 1 was used, except that the smaller box measured 370 mm×260 mm×190 mm.
(§6) This consisted of training as described for mice under section (d) of Example 1.
Test drugs or control fluids were given before or immediately after the training session.
(§7) This was as described under section (e) of Example 1.

[4] = tested on: scopolamine-induced deficit in rats; test: Light-dark box memory test in rats, sub-acute dosing: pre-training, pre-training and pre-retest, or four pre-treatments and before training and retest (Table 5); conditions: for Mean latency Day 5 / Mean latency Day 6: ± SEM
Procedure: as §3
In the sub-acute dosing regimen (see `Procedure`) the rats, housed as above, received six doses of drug or vehicle by the oral route, each 24 hours apart.
as §4, §5, §6
The procedure was identical with that described above, except that seven groups of rats received compound A or control pre-treatment as 6 oral doses each 24 hours apart, as follows.
Training took place 1 hour after the fifth dose i.e. on day 5. […] The usual retest was performed 24 hours later (on day 6), one hour after the sixth oral treatment.
as §7
The mean latency to enter the dark box±standard error of the mean was calculated from a group of 24 animals (controls in first block) or 12 animals (all other treatments). For a given treatment, figures in the columns labelled `Day 5` and `Day 6` show the mean latencies taken from the same group of animals. The difference between data obtained on the two days is illustrated by showing the % decrease, and the data compared using the Mann-Whitney U-test.

[5] = compound A 10 mg/kg p.o. + saline s.c.
[6] = compound A 40 mg/kg p.o. + saline s.c.
[7] = compound A 40 mg/kg p.o. + scopolamine 0.1 mg/kg s.c.
[8] = compound A pretreatment, p>0.05 vs vehicle
[9] = saline s.c. + compound A 40 mg/kg p.o.
[10] = scopolamine 0.1 mg/kg s.c. + compound A 10 mg/kg p.o.
[11] = scopolamine 0.1 mg/kg s.c. + compound A 20 mg/kg p.o.
[12] = scopolamine 0.1 mg/kg s.c. + compound A 40 mg/kg p.o.
[13] = saline + compound A 2.5 mg/kg p.o. days 1-6
[14] = saline + compound A 10 mg/kg p.o. day 5 only
[15] = saline + compound A 10 mg/kg p.o. days 1-6
[16] = saline + compound A 10 mg/kg p.o. days 5 and 6
[17] = saline + compound A 40 mg/kg p.o. day 5 only
[18] = saline + compound A 40 mg/kg p.o. days 5 and 6
[19] = scopolamine 0.1 mg/kg s.c. + compound A 2.5 mg/kg p.o. days 1-6
[20] = scopolamine 0.1 mg/kg s.c. + compound A 10 mg/kg p.o. day 5 only
[21] = scopolamine 0.1 mg/kg s.c. + compound A 10 mg/kg p.o. days 1-6
[22] = scopolamine 0.1 mg/kg s.c. + compound A 10 mg/kg p.o. days 5 and 6
[23] = scopolamine 0.1 mg/kg s.c. + compound A 40 mg/kg p.o. day 5 only
[24] = scopolamine 0.1 mg/kg s.c. + compound A 40 mg/kg p.o. days 5 and 6

Nc1nnc(-c2cccc(Cl)c2Cl)c(N)n1 [Compound A, 3,5-Diamino-6-(2,3-dichlorophenyl)-1,2,4-triazine]
Mean pupil diameter [1, 5]: 7.00 ± 0.58 mm × 10 | Mean pupil diameter [1, 6]: 7.75 ± 0.85 mm × 10 | Mean pupil diameter [1, 7]: 23.0 ± 1.78 mm × 10 | Influence on scopolamine-induced change in pupil diameter [1, 8]: no influence on the scopolamine-induced changes | Mean salivation (blot diameter) [2, 5]: 8.75 ± 1.11 mm | Mean salivation (blot diameter) [2, 6]: 8.25 ± 0.63 mm | Mean salivation (blot diameter) [2, 7]: 2.13 ± 0.63 mm | Influence on scopolamine-induced change in salivation [2, 8]: no influence on the scopolamine-induced changes | Difference between days, % Decrease ([3]; saline s.c. + compound A 40 mg/kg p.o., p <0.001): 50% | Mean latency Day 1 [3, 9]: 38.3 ± 3.8 s | Mean latency Day 2 [3, 9]: 19.3 ± 3.0 s | Difference between days, % Decrease ([3]; scopolamine 0.1 mg/kg s.c. + compound A 10 mg/kg p.o., p NS): 0% | Mean latency Day 1 [3, 10]: 40.8 ± 4.8 s | Mean latency Day 2 [3, 10]: 40.8 ± 4.6 s | Difference between days, % Decrease ([3]; scopolamine 0.1 mg/kg s.c. + compound A 20 mg/kg p.o., p NS*): 16% | Mean latency Day 1 [3, 11]: 37.7 ± 4.4 s | Mean latency Day 2 [3, 11]: 31.7 ± 3.9 s | Difference between days, % Decrease ([3]; scopolamine 0.1 mg/kg s.c. + compound A 40 mg/kg p.o., p <0.01): 45% | Mean latency Day 1 [3, 12]: 38.4 ± 4.1 s | Mean latency Day 2 [3, 12]: 21.1 ± 3.6 s | Effect on scopolamine-induced deficit ([4]; compound A single dose 10 mg/kg before the learning trial): did not alter the scopolamine-induced deficit | Diff. between days, % ([4]; saline + compound A 2.5 mg/kg p.o. days 1-6, p <0.01): 46% | Mean latency Day 5 [4, 13]: 35.3 ± 3.7 s | Mean latency Day 6 [4, 13]: 19.3 ± 2.5 s | Diff. between days, % ([4]; saline + compound A 10 mg/kg p.o. day 5 only, p <0.001): 52% | Mean latency Day 5 [4, 14]: 39.8 ± 3.9 s | Mean latency Day 6 [4, 14]: 19.3 ± 2.5 s | Diff. between days, % ([4]; saline + compound A 10 mg/kg p.o. days 1-6, p <0.01): 44% | Mean latency Day 5 [4, 15]: 34.3 ± 3.6 s | Mean latency Day 6 [4, 15]: 19.1 ± 3.4 s | Diff. between days, % ([4]; saline + compound A 10 mg/kg p.o. days 5 and 6, p <0.001): 48% | Mean latency Day 5 [4, 16]: 37.2 ± 3.1 s | Mean latency Day 6 [4, 16]: 19.3 ± 2.6 s | Diff. between days, % ([4]; saline + compound A 40 mg/kg p.o. day 5 only, p <0.01): 45% | Mean latency Day 5 [4, 17]: 35.2 ± 3.4 s | Mean latency Day 6 [4, 17]: 19.3 ± 3.4 s | Diff. between days, % ([4]; saline + compound A 40 mg/kg p.o. days 5 and 6, p <0.001): 50% | Mean latency Day 5 [4, 18]: 36.0 ± 3.2 s | Mean latency Day 6 [4, 18]: 17.8 ± 2.2 s | Diff. between days, % ([4]; scopolamine 0.1 mg/kg s.c. + compound A 2.5 mg/kg p.o. days 1-6, p NS): 16% | Mean latency Day 5 [4, 19]: 33.8 ± 3.0 s | Mean latency Day 6 [4, 19]: 28.4 ± 3.4 s | Diff. between days, % ([4]; scopolamine 0.1 mg/kg s.c. + compound A 10 mg/kg p.o. day 5 only, p NS): -4% | Mean latency Day 5 [4, 20]: 34.3 ± 2.8 s | Mean latency Day 6 [4, 20]: 15.8 ± 4.5 s | Diff. between days, % ([4]; scopolamine 0.1 mg/kg s.c. + compound A 10 mg/kg p.o. days 1-6, p <0.01): 41% | Mean latency Day 5 [4, 21]: 35.4 ± 3.2 s | Mean latency Day 6 [4, 21]: 20.8 ± 3.6 s | Diff. between days, % ([4]; scopolamine 0.1 mg/kg s.c. + compound A 10 mg/kg p.o. days 5 and 6, p NS (0.1)): 28% | Mean latency Day 5 [4, 22]: 38.2 ± 4.3 s | Mean latency Day 6 [4, 22]: 27.7 ± 3.5 s | Diff. between days, % ([4]; scopolamine 0.1 mg/kg s.c. + compound A 40 mg/kg p.o. day 5 only, p printed #0.001): 46% | Mean latency Day 5 [4, 23]: 33.3 ± 2.6 s | Mean latency Day 6 [4, 23]: 18.0 ± 2.0 s | Diff. between days, % ([4]; scopolamine 0.1 mg/kg s.c. + compound A 40 mg/kg p.o. days 5 and 6, p <0.01): 48% | Mean latency Day 5 [4, 24]: 33.6 ± 3.6 s | Mean latency Day 6 [4, 24]: 17.5 ± 2.5 s
